According to article PMC7457602 (bioRxiv, 2020):

Biological target: SARS-CoV-2 3CLpro (Severe acute respiratory syndrome coronavirus 2, UniProt P0DTD1)

## O=c1c2ccccc2[se]n1-c1ccccc1 [Ebselen]
  activity in the transfection-based assay (rescue of 3CLpro induced cytotoxicity): did not observe activity
